# Results: ChEMBL document CHEMBL1201862, “PubChem BioAssay data set” (2004)
# Calls of active or inactive are those of the source.
# Legend:
# Leucine aminopeptidase = target: T1, Leucine aminopeptidase (Plasmodium falciparum 3D7, UniProt Q8IL11); experiment: P. falciparum M17LAP inhibitors, primary screen, biochemical, fluorogenic H-Leu-NHMec substrate, 1536-well (AID 1619); type: functional
# T1 sequence (Q8IL11 whole entry): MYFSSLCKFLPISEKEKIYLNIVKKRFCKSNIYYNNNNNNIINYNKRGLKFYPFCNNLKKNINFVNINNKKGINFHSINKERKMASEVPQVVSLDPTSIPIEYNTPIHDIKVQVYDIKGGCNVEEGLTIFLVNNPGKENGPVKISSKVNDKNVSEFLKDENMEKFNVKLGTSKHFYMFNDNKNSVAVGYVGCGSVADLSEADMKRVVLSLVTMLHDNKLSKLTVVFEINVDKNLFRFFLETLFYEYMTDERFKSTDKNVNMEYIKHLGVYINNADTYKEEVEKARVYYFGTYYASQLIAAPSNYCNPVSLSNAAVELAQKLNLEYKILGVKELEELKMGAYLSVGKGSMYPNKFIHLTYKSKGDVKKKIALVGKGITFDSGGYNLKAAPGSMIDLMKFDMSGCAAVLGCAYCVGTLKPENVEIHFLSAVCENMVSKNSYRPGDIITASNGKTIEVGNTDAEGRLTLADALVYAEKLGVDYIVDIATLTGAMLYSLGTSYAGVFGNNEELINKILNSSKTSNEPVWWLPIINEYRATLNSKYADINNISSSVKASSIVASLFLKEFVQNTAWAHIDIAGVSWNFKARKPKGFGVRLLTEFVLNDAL
# Aspartyl aminopeptidase = Aspartyl aminopeptidase (Plasmodium falciparum 3D7, UniProt Q8I2J3); experiment: Counterscreen for inhibitors of M1 and M17 aminopeptidases: QFRET-based biochemical high throughput dose response assay for inhibitors of the Plasmodium falciparum M18 Aspartyl Aminopeptidase (PFM18AAP). [Related PubChem assays: 1619 (Screening assay (M17LAP inhibitors).), 1445 (Screening assay (M1AAP inhibitors).)]
# Chain of Aspartyl aminopeptidase (Q8I2J3 whole entry): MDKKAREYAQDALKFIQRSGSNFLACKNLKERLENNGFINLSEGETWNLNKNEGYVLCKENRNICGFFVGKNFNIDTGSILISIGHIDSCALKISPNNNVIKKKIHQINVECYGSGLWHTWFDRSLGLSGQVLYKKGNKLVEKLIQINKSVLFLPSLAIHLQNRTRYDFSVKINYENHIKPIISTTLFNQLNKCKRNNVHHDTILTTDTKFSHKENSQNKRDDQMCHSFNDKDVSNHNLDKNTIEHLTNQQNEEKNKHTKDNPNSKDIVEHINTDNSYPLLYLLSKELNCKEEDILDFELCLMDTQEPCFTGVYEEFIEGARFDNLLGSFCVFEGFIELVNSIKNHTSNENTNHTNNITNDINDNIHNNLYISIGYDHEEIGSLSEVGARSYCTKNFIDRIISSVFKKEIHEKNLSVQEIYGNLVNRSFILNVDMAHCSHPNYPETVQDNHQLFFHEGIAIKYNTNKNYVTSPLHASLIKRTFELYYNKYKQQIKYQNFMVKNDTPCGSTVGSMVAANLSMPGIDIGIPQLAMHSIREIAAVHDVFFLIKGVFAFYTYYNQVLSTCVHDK
# Procathepsin L = Procathepsin L (Homo sapiens, UniProt P07711); experiment: cathepsin L inhibitors, dose response, counter-screen for M1/M17 aminopeptidase inhibitor project, biochemical, QFRET, 1536-well (AID 2214)
# Chain of Procathepsin L (P07711 whole entry): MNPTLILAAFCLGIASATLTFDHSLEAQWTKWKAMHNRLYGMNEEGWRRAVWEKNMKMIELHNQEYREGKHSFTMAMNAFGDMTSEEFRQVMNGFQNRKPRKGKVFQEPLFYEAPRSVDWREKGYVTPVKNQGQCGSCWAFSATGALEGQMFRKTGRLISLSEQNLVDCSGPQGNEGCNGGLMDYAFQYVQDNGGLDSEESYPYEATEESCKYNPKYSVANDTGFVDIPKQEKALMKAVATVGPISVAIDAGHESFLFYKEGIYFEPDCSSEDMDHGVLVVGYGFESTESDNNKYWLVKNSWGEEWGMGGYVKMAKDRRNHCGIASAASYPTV
# [1] = target: Serine/threonine-protein phosphatase PP1-alpha catalytic subunit (Homo sapiens, UniProt P62136); experiment: PP1 phosphatase inhibitors, dose response, biochemical, fluorescence (AID 2394)
# Chain of Serine/threonine-protein phosphatase PP1-alpha catalytic subunit (P62136 whole entry): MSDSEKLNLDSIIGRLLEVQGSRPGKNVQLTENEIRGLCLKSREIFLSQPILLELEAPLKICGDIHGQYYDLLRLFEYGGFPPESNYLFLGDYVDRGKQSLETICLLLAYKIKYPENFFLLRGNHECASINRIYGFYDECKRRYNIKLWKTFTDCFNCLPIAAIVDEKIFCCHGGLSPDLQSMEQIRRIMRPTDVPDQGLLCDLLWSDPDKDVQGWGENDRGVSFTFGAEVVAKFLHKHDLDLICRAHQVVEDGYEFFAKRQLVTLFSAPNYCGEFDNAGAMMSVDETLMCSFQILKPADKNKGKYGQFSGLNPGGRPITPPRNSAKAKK
# [2] = growth suppression of PTEN-null colon cells, dose response, cell-based, HCT116 PTEN knockout (AID 1047); type: functional;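 also: HCT116 colon tumor cells with PTEN knocked out; cells exposed to compound for 60 hours before readout; potency for loss of cell viability measured by luminescence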
# [3] = target: Serine/threonine-protein phosphatase (Homo sapiens, UniProt Q9BPW0); experiment: PP5 phosphatase inhibitors, dose response, biochemical, fluorescence (AID 2395)
# Chain of Serine/threonine-protein phosphatase (Q9BPW0 whole entry): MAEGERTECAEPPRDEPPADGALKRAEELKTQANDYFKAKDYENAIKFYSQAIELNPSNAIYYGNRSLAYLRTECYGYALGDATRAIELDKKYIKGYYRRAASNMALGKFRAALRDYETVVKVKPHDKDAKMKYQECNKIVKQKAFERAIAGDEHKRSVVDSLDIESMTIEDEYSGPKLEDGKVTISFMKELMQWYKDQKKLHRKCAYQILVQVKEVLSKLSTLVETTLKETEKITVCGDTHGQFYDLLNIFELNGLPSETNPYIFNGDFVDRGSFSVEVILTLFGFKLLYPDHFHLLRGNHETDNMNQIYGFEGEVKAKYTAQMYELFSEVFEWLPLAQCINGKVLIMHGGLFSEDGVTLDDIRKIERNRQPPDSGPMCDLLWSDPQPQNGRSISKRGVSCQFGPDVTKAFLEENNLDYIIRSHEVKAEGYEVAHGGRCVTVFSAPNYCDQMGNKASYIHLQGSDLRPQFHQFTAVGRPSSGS
# [4] = growth suppression of beta-catenin-knockout colon cells, dose response, cell-based, HCT116, human colon tumor (AID 1045); type: functional;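 also: HCT116 colon tumor cells with beta catenin knocked out; cells exposed to compound for 60 hours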
# [5] = target: Sphingosine 1-phosphate receptor 2 (Homo sapiens, UniProt O95136); experiment: Dose Response Cell Based Assay for Agonists of the S1P2 Receptor. [Related pubchem assays: 729, 736, 843 ]; type: functional
# Chain of Sphingosine 1-phosphate receptor 2 (O95136 whole entry): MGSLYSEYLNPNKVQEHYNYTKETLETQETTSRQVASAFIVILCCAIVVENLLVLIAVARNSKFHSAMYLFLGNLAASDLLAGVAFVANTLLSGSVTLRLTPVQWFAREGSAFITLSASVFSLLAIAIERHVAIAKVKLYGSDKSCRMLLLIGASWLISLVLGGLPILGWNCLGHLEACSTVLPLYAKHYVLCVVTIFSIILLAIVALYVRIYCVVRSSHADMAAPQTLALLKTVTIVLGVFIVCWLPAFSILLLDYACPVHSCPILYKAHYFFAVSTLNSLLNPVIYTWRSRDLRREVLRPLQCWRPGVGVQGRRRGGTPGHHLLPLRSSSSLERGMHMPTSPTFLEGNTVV
# Protein RecA = target: T2, Protein RecA (Mycobacterium tuberculosis, UniProt P9WHJ3); experiment: Fluorescence Cell-Free Homogeneous Dose Retest to Identify Inhibitors of RecA-Intein Splicing Activity. [Related pubchem assays (depositor defined):AID2097, AID2223, AID489010, AID492950]; type: functional
# T2 sequence (P9WHJ3 whole entry): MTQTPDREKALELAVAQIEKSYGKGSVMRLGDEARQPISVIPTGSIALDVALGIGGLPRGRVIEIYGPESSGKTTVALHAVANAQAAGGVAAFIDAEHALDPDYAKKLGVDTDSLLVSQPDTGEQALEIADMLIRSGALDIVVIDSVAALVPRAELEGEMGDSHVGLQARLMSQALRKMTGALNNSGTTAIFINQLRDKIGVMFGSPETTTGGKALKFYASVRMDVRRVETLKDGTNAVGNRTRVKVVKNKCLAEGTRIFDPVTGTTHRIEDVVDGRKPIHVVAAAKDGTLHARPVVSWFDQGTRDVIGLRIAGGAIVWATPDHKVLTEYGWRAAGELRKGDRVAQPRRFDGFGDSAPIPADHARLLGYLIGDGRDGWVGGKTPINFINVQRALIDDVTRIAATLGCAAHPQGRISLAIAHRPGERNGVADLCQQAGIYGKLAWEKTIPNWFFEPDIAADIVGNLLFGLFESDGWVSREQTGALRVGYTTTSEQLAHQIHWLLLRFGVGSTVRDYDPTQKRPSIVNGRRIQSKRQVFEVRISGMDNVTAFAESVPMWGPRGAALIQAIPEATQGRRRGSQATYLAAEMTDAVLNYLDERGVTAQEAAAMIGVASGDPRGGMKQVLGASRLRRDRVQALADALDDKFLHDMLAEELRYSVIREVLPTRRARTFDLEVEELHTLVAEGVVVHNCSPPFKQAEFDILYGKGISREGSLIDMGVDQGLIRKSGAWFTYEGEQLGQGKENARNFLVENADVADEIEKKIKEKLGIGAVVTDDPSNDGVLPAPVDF
# [6] = target: Glyceraldehyde-3-phosphate dehydrogenase (Homo sapiens, UniProt P04406)
# Chain of Glyceraldehyde-3-phosphate dehydrogenase (P04406 whole entry): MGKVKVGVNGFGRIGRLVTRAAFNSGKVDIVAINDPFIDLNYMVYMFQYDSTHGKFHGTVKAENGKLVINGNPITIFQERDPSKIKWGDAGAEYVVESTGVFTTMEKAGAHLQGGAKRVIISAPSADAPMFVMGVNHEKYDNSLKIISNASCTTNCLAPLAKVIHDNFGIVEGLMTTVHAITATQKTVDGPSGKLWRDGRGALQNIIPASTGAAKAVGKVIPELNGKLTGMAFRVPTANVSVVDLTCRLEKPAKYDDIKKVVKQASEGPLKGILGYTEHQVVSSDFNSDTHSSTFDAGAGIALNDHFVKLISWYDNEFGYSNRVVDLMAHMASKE
# Bcl-2-related protein A1 [7] = target: T3, Bcl-2-related protein A1 (Mus musculus, UniProt Q07440); experiment: Bfl-1 inhibitors blocking BH3 peptide binding, confirmation, biochemical, TR-FRET, mouse Bfl-1 (AID 621);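 also: TR-FRET binding of GST-Bfl-1 to FITC-labelled Bid peptide via terbium antibody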
# T3 sequence (Q07440 whole entry): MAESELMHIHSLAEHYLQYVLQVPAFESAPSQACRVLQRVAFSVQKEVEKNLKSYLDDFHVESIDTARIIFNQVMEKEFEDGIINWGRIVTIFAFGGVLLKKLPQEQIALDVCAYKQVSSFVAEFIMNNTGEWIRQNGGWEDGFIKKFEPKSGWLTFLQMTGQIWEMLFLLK
# Bcl-2-related protein A1 [8] = target: T3, Bcl-2-related protein A1; experiment: Bfl-1 binding inhibitors, SAR follow-up, biochemical, fluorescence polarization (AID 1070)
# [9] = target: T4, RNA-binding protein pos-1 (Caenorhabditis elegans, UniProt G5EF15); experiment: inhibitors of POS-1/mex-3 RNA binding, dose response, biochemical, fluorescence polarization (AID 1964);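 also: purified POS-1 fused to maltose binding protein made in E. coli; potency of compounds blocking POS-1 binding to fluorescent RNA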
# T4 sequence (G5EF15 whole entry): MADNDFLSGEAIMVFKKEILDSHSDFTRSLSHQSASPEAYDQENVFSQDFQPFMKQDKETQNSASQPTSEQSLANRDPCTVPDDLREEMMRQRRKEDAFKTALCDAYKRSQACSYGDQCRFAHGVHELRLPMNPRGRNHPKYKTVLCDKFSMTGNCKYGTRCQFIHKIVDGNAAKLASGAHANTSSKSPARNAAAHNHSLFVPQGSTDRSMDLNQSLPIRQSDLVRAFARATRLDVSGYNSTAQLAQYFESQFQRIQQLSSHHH
# [10] = target: T5, Zinc finger protein mex-5 (Caenorhabditis elegans, UniProt Q9XUB2); experiment: MEX-5/TCR-2 RNA interaction inhibitors, dose response, biochemical, C. elegans, fluorescence polarization (AID 1960)
# T5 sequence (Q9XUB2 whole entry): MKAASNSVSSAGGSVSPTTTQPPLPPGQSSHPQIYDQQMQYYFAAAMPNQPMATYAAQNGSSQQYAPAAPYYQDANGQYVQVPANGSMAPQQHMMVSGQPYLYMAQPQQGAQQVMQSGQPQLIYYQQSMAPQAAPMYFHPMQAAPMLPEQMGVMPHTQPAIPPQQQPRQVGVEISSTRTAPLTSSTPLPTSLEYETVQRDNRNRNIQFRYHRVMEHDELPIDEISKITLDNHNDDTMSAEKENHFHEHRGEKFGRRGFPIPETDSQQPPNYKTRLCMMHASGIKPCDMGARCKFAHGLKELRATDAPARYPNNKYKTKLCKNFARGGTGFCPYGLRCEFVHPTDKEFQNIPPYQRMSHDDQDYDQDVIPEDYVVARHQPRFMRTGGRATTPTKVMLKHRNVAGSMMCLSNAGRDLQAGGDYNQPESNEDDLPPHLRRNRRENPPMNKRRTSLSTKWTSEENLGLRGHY
# [11] = Escherichia coli growth inhibition, dose response, counter-screen for MEX-5/POS-1 RNA-binding inhibitor project, luminescence, NEB5alpha (AID 1959); type: functional
# Large T antigen = Large T antigen (Simian virus 40, UniProt P03070); type: functional, Betapolyomavirus macacae;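 also: Confirmatory-stage PubChem screen for compounds that inhibit SV40 T antigen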
# Chain of Large T antigen (P03070 whole entry): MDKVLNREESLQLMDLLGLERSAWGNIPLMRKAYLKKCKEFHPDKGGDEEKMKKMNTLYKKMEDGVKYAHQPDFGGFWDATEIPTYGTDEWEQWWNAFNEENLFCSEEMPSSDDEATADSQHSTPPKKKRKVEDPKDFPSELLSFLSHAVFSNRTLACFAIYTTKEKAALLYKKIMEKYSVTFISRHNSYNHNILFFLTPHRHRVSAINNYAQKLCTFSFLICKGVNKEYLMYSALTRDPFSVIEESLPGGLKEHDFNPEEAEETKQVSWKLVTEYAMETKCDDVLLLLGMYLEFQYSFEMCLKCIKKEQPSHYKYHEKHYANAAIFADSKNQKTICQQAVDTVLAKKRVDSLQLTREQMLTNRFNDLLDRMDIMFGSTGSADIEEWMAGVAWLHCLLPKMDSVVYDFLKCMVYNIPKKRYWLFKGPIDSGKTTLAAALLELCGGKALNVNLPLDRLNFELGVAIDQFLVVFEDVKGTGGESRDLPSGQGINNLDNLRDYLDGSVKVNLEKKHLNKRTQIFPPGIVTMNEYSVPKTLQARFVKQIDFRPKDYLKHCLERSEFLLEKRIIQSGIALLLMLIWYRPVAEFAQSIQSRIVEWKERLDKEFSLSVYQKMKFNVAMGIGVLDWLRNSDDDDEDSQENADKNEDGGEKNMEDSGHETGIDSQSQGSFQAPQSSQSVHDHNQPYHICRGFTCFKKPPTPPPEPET
# [12] = target: Luciferin 4-monooxygenase (Photinus pyralis, UniProt P08659); experiment: firefly luciferase enzyme inhibitors, dose response, biochemical, luminescence (AID 1891)
# Chain of Luciferin 4-monooxygenase (P08659 whole entry): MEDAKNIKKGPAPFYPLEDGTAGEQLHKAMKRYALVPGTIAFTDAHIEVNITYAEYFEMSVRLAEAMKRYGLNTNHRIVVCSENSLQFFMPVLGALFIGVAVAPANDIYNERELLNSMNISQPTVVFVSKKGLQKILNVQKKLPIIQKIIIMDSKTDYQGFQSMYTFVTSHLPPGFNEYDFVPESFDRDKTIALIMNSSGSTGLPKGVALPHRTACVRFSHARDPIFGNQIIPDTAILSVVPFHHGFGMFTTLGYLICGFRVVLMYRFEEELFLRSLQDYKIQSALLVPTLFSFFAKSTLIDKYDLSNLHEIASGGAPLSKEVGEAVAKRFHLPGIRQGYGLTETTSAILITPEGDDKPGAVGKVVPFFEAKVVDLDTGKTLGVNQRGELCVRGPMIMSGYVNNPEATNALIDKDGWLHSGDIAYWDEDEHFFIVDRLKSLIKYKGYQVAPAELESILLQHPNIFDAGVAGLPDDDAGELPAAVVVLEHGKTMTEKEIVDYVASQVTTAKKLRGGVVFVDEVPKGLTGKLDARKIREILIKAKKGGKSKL
# [13] = Luminescence Cell-Based Dose Confirmation HTS to Identify Inhibitors of Platelet Dense Granule Release. [Related pubchem assays: 1663 (Primary HTS), 1678 (Summary of Project)]; type: functional
# [14] = target: T6, Histone-lysine N-methyltransferase NSD2 (Homo sapiens, UniProt O96028); type: biochemical
# T6 sequence (O96028 whole entry): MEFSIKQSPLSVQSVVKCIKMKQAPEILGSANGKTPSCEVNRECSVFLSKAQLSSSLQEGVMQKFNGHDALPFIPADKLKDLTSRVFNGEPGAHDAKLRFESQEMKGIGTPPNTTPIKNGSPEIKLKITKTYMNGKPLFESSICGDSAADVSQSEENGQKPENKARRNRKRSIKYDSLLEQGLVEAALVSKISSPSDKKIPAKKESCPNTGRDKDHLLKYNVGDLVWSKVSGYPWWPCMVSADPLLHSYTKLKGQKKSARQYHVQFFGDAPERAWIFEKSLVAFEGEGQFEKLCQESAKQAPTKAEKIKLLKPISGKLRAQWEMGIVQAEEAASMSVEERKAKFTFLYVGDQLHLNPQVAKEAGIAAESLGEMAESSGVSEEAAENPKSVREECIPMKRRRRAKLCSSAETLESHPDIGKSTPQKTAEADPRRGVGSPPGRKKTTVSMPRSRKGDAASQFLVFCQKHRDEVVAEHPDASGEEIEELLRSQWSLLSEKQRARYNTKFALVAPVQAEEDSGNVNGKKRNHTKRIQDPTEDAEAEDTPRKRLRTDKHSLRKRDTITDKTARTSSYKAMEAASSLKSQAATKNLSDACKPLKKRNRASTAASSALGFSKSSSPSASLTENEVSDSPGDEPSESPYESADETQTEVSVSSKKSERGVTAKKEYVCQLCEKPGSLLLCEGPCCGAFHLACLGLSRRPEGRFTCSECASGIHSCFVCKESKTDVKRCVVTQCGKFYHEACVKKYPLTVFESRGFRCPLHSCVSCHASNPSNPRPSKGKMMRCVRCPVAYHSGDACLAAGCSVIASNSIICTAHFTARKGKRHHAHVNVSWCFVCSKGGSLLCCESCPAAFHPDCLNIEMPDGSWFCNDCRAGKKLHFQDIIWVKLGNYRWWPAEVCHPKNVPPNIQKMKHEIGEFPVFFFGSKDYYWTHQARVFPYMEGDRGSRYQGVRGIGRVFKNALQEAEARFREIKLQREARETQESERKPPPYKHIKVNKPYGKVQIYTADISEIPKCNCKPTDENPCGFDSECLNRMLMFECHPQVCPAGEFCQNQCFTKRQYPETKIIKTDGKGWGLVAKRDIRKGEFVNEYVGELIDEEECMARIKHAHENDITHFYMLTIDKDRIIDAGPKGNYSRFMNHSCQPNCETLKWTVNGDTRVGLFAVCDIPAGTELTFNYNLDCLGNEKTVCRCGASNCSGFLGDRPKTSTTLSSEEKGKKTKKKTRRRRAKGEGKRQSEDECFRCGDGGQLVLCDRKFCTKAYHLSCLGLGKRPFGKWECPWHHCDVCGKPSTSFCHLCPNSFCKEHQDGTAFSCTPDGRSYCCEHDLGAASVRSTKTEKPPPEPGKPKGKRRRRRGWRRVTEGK
compound,measurement,setting,value
Cc1ccc(Nc2nnc(SCc3cc(=O)n4ccsc4n3)s2)c(C)c1,IC50,Leucine aminopeptidase,6.49 µM (active)
same,IC50,Aspartyl aminopeptidase,> 73.5 µM (not active)
same,IC50,Procathepsin L,> 59.6 µM (not active)
CC(C)CNC(=O)c1c(N)n(Cc2ccc3c(c2)OCO3)c2nc3ccccc3nc12,IC50,[1],> 67 µM (not active)
same,EC50,[2],11.9 µM (active)
same,IC50,[3],17.9 µM (not active)
same,EC50,[4],16.3 µM (active)
same,EC50,[5],2.61 µM (active)
same,EC50,Protein RecA,> 380 µM (inconclusive)
CC1C(=O)NCCN1C1=C(Cl)C(=O)N(c2ccc(Cl)c(Cl)c2)C1=O (centres undefined),IC50,[6],> 50 µM (inconclusive)
same,IC50,Bcl-2-related protein A1 [7],2.03 µM (active)
same,IC50,Bcl-2-related protein A1 [8],5.63 µM (active)
O=C(/C=C/c1ccc(O)c(O)c1)c1ccccc1O,EC50,[9],> 300 µM (not active)
same,EC50,[10],42.3 µM (active)
same,EC50,[11],19.5 µM (active)
same,IC50,Large T antigen,17.4 µM (active)
same,EC50,[12],0.437 µM (active)
same,EC50,[13],2.23 µM (active)
same,AC50,[14],> 20 µM (inactive)
